Results from patent US6706663B2, “Herbicidal 3-heterocyclic substituted benzisothiazole and benzisoxazole compounds” (Wyeth, priority 2000, dated 2004).

Columns and labels:
[1] = system: MOOVA (Monochoria vaginalis); experiment: Flooded paddy, preemergence weed control; assay type: in vivo, Presl.; conditions: rated 3-4 weeks after treatment, 0-9 rating scale
Outline: (§1)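 Seeds or propagules were planted in the top 0.5 cm of silt loam soil and kept flooded 1.5–3 cm above the surface throughout, then held in the greenhouse. Injury was rated visually on a 0–9 scale against untreated controls, covering stand, vigor, malformation, size and chlorosis.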

[2] = system: ABUTH (Abutilon theophrasti); experiment: Postemergence herbicidal evaluation; assay type: in vivo, Medic.
Outline: (§2)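 Seedlings grown for about two weeks were sprayed postemergence and then kept under standard greenhouse care. Injury was rated visually 4–5 weeks after treatment on a 0–9 scale against untreated controls, and ratings from repeat tests were averaged.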

[3] = system: IPOHE (Ipomoea hederacea); experiment: Postemergence herbicidal evaluation; assay type: in vivo, (L.) Jacq.
Outline: as §2

[4] = system: TRZAWR (Wheat, Winter, cv Riband); experiment: Preemergence herbicidal evaluation; assay type: in vivo, Triticum aestivum; conditions: preemergence, rated 4-5 weeks after treatment
Outline: (§3)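 Seeds mixed with potting soil were planted atop about one inch of soil, then sprayed with test compound in aqueous acetone. Cups were kept in the greenhouse and rated visually 4–5 weeks after treatment on a 0–9 scale against untreated control.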

ORYSAT (Rice, Tebonnet) [5] = experiment: Postemergence herbicidal evaluation; assay type: in vivo, Oryza sativa, (L.) Tebonnet
Outline: as §2

[6] = system: CASOB (Cassia obtusifolia); experiment: Preemergence herbicidal evaluation; assay type: in vivo, L.; conditions: preemergence, rated 4-5 weeks after treatment
Outline: as §3

[7] = system: AMBEL (Ambrosia artemisifolia); experiment: Preemergence herbicidal evaluation; assay type: in vivo, L.; conditions: preemergence, rated 4-5 weeks after treatment
Outline: as §3

[8] = system: CHEAL (Chenopodium album); experiment: Preemergence herbicidal evaluation; assay type: in vivo, L.; conditions: preemergence, rated 4-5 weeks after treatment
Outline: as §3

[9] = system: IPOHE (Ipomoea hederacea); experiment: Preemergence herbicidal evaluation; assay type: in vivo, (L.) Jacq.; conditions: preemergence, rated 4-5 weeks after treatment
[10] = system: GLXMAW (Soybean, Williams); experiment: Postemergence herbicidal evaluation; assay type: in vivo, Glycine max, (L.) Merr. cv Williams
Outline: as §2

ORYSAT (Rice, Tebonnet) [11] = experiment: Flooded paddy, post-transplant rice tolerance; assay type: in vivo, Oryza sativa, (L.) Tebonnet; conditions: flooded paddy, post-transplant rice; rate 0.0320 kg/ha; rated 3-4 weeks after treatment; 0-9 rating scale
Outline: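 Scores (0-9) reflect visual injury relative to untreated plants in flooded silt loam. Each pot held two transplanted ten-day-old seedlings under 1.5 to 3 cm standing water in the greenhouse.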

ZEAMX (Corn, Field) = experiment: Preemergence herbicidal evaluation; assay type: in vivo, Zea mays, L.; conditions: preemergence, rated 4-5 weeks after treatment
[12] = system: GLXMAW (Soybean, Williams); experiment: Preemergence herbicidal evaluation; assay type: in vivo, Glycine max, (L.) Merr. cv Williams; conditions: preemergence, rated 4-5 weeks after treatment
[13] = system: ECHCG (Echinochloa crus-galli); experiment: Preemergence herbicidal evaluation; assay type: in vivo, (L.) Beau; conditions: preemergence, rated 4-5 weeks after treatment
Outline: as §3

SETVI (Setaria viridis) = experiment: Preemergence herbicidal evaluation; assay type: in vivo, (L.) Beau; conditions: preemergence, rated 4-5 weeks after treatment
Outline: as §3

[14] = system: ABUTH (Abutilon theophrasti); experiment: Preemergence herbicidal evaluation; assay type: in vivo, Medic.; conditions: preemergence, rated 4-5 weeks after treatment
CYPIR (Cyperus iria) = experiment: Flooded paddy, preemergence weed control; assay type: in vivo; conditions: rated 3-4 weeks after treatment, 0-9 rating scale
Outline: as §1

[15] = system: CASOB (Cassia obtusifolia); experiment: Postemergence herbicidal evaluation; assay type: in vivo, L.
Outline: as §2

[16] = system: AMBEL (Ambrosia artemisifolia); experiment: Postemergence herbicidal evaluation; assay type: in vivo, L.
Outline: as §2

[17] = system: CHEAL (Chenopodium album); experiment: Postemergence herbicidal evaluation; assay type: in vivo, L.
Outline: as §2

Compound: Cn1c(C(F)(F)F)cc(=O)n(-c2ccc3snc(C4SCCS4)c3c2)c1=O [Compound 24, 3-[3-(1,3-dithiolan-2-yl)-1,2-benzisothiazol-5-yl]-1-methyl-6-(trifluoromethyl)uracil]
- herbicidal rating, MOOVA ([1]; rate 0.0320 kg/ha): 5.0
- herbicidal rating, MOOVA ([1]; rate 0.1250 kg/ha): 8.0
- Postemergence herbicidal rating, ABUTH ([2]; rate 0.0320 kg/ha): 9.0
- Postemergence herbicidal rating, ABUTH ([2]; rate 0.0620 kg/ha): 9.0
- Postemergence herbicidal rating, IPOHE ([3]; rate 0.0320 kg/ha): 9.0
- Postemergence herbicidal rating, IPOHE ([3]; rate 0.0620 kg/ha): 9.0
- TRZAWR preemergence herbicidal rating ([4]; Rate 0.0620 kg/ha): 0.0
- TRZAWR preemergence herbicidal rating ([4]; Rate 0.1250 kg/ha): 2.0
- Postemergence herbicidal rating, ORYSAT (ORYSAT (Rice, Tebonnet) [5]; rate 0.0320 kg/ha): 2.0
- Postemergence herbicidal rating, ORYSAT (ORYSAT (Rice, Tebonnet) [5]; rate 0.0620 kg/ha): 2.5
- CASOB preemergence herbicidal rating ([6]; Rate 0.0620 kg/ha): 0.0
- CASOB preemergence herbicidal rating ([6]; Rate 0.1250 kg/ha): 0.0
- CASOB preemergence herbicidal rating ([6]; Rate 0.2500 kg/ha): 3.0
- AMBEL preemergence herbicidal rating ([7]; Rate 0.0620 kg/ha): 4.5
- AMBEL preemergence herbicidal rating ([7]; Rate 0.1250 kg/ha): 8.0
- AMBEL preemergence herbicidal rating ([7]; Rate 0.2500 kg/ha): 9.0
- CHEAL preemergence herbicidal rating ([8]; Rate 0.0620 kg/ha): 7.5
- CHEAL preemergence herbicidal rating ([8]; Rate 0.1250 kg/ha): 9.0
- CHEAL preemergence herbicidal rating ([8]; Rate 0.2500 kg/ha): 9.0
- IPOHE preemergence herbicidal rating ([9]; Rate 0.0620 kg/ha): 2.0
- IPOHE preemergence herbicidal rating ([9]; Rate 0.1250 kg/ha): 6.5
- IPOHE preemergence herbicidal rating ([9]; Rate 0.2500 kg/ha): 7.0
- Postemergence herbicidal rating, GLXMAW ([10]; rate 0.0320 kg/ha): 8.0
- Postemergence herbicidal rating, GLXMAW ([10]; rate 0.0620 kg/ha): 8.5
- herbicidal rating, ORYSAT (rice tolerance) (ORYSAT (Rice, Tebonnet) [11]): 0.0
- ZEAMX preemergence herbicidal rating (ZEAMX (Corn, Field); Rate 0.0620 kg/ha): 0.0
- ZEAMX preemergence herbicidal rating (ZEAMX (Corn, Field); Rate 0.1250 kg/ha): 1.0
- ZEAMX preemergence herbicidal rating (ZEAMX (Corn, Field); Rate 0.2500 kg/ha): 3.0
- GLXMAW preemergence herbicidal rating ([12]; Rate 0.0620 kg/ha): 2.0
- GLXMAW preemergence herbicidal rating ([12]; Rate 0.1250 kg/ha): 2.5
- GLXMAW preemergence herbicidal rating ([12]; Rate 0.2500 kg/ha): 4.0
- ECHCG preemergence herbicidal rating ([13]; Rate 0.0620 kg/ha): 0.0
- ECHCG preemergence herbicidal rating ([13]; Rate 0.1250 kg/ha): 1.5
- ECHCG preemergence herbicidal rating ([13]; Rate 0.2500 kg/ha): 5.0
- SETVI preemergence herbicidal rating (SETVI (Setaria viridis); Rate 0.0620 kg/ha): 3.5
- SETVI preemergence herbicidal rating (SETVI (Setaria viridis); Rate 0.1250 kg/ha): 8.0
- SETVI preemergence herbicidal rating (SETVI (Setaria viridis); Rate 0.2500 kg/ha): 9.0
- ABUTH preemergence herbicidal rating ([14]; Rate 0.0620 kg/ha): 3.5
- ABUTH preemergence herbicidal rating ([14]; Rate 0.1250 kg/ha): 7.0
- ABUTH preemergence herbicidal rating ([14]; Rate 0.2500 kg/ha): 9.0
- herbicidal rating, CYPIR (CYPIR (Cyperus iria); rate 0.0320 kg/ha): 0.0
- herbicidal rating, CYPIR (CYPIR (Cyperus iria); rate 0.1250 kg/ha): 5.0
- Postemergence herbicidal rating, CASOB ([15]; rate 0.0320 kg/ha): 3.0
- Postemergence herbicidal rating, CASOB ([15]; rate 0.0620 kg/ha): 9.0
- Postemergence herbicidal rating, AMBEL ([16]; rate 0.0320 kg/ha): 9.0
- Postemergence herbicidal rating, AMBEL ([16]; rate 0.0620 kg/ha): 9.0
- Postemergence herbicidal rating, CHEAL ([17]; rate 0.0320 kg/ha): 9.0
- Postemergence herbicidal rating, CHEAL ([17]; rate 0.0620 kg/ha): 9.0
